ChEMBL document CHEMBL1201862, “PubChem BioAssay data set” (2004)
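Step 1: Grow cells in 96-well plates. Step 2: Expose to compound for 48 hours at 5 concentrations. Step 3: Interpolate endpoints linearly; if unreached, use highest concentration. Abbreviation: GI50, concentration required for 50% inhibition of growth.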 Calls of active or inactive are those of the source. Cut-off read from the data, not from the text of the source: active = GI50 up to about 1.1 µM and inactive = higher.

How the values were obtained:
Assay in all cases: growth of human tumour cells (NCI), 48 h
DMS-114 = system: DMS-114
SK-MEL-28 = system: SK-MEL-28
M14 = system: M14
LXFL 529 = system: LXFL 529
HOP-18 = system: HOP-18
Malme-3M = system: Malme-3M
TK-10 = system: TK-10
SR = system: SR
SF-539 = system: SF-539
UO-31 = system: UO-31
SNB-19 = system: SNB-19
RXF 631 = system: RXF 631
OVCAR-5 = system: OVCAR-5
SK-MEL-5 = system: SK-MEL-5
KM12 = system: KM12
DMS-273 = system: DMS-273
SF-295 = system: SF-295
A549 = system: A549
SF-268 = system: SF-268
HCT-15 = system: HCT-15
IGROV-1 = system: IGROV-1
HL-60 = system: HL-60
K562 = system: K562
COLO 205 = system: COLO 205
NCI-H226 = system: NCI-H226
CCRF-CEM = system: CCRF-CEM
OVCAR-3 = system: OVCAR-3
M19-MEL = system: M19-MEL
U-251 = system: U-251
SK-OV-3 = system: SK-OV-3
MOLT-4 = system: MOLT-4
SNB-78 = system: SNB-78
A498 = system: A498
OVCAR-8 = system: OVCAR-8
ACHN = system: ACHN
SNB-75 = system: SNB-75
HOP-62 = system: HOP-62
CAKI-1 = system: CAKI-1
RXF 393 = system: RXF 393
HT-29 = system: HT-29
NCI-H460 = system: NCI-H460
HCC 2998 = system: HCC 2998
EKVX = system: EKVX
786-0 = system: 786-0
HOP-92 = system: HOP-92
XF498 = system: XF498
LOX IMVI = system: LOX IMVI
UACC-257 = system: UACC-257
SK-MEL-2 = system: SK-MEL-2
SN12C = system: SN12C
KM-20L2 = system: KM-20L2
HCT-116 = system: HCT-116
RPMI-8226 = system: RPMI-8226
SW-620 = system: SW-620
NCI-H522 = system: NCI-H522
NCI-H23 = system: NCI-H23
UACC-62 = system: UACC-62
DLD-1 = system: DLD-1

CSC(=S)NNC(=O)c1ccncc1
GI50 (DMS-114): 14.3 µM (inactive)
GI50 (SK-MEL-28): 18.9 µM (inactive)
GI50 (M14): 19 µM (inactive)
GI50 (LXFL 529): 15.7 µM (inactive)
GI50 (HOP-18): 25.2 µM (inactive)
GI50 (Malme-3M): 18.8 µM (inactive)
GI50 (TK-10): 26.7 µM (inactive)
GI50 (SR): 14.6 µM (inactive)
GI50 (SF-539): 19.8 µM (inactive)
GI50 (UO-31): 17.8 µM (inactive)
GI50 (SNB-19): 22.7 µM (inactive)
GI50 (RXF 631): 30 µM (inactive)
GI50 (OVCAR-5): 23.9 µM (inactive)
GI50 (SK-MEL-5): 23.7 µM (inactive)
GI50 (KM12): 40.7 µM (inactive)
GI50 (DMS-273): 21.7 µM (inactive)
GI50 (SF-295): 22.6 µM (inactive)
GI50 (A549): 61.4 µM (inactive)
GI50 (SF-268): 21.6 µM (inactive)
GI50 (HCT-15): 15 µM
GI50 (IGROV-1): 14.6 µM (inactive)
GI50 (HL-60): 20 µM (inactive)
GI50 (K562): 19.2 µM (inactive)
GI50 (COLO 205): 34.9 µM (inactive)
GI50 (NCI-H226): 18.2 µM (inactive)
GI50 (CCRF-CEM): 18.9 µM (inactive)
GI50 (OVCAR-3): 21.4 µM (inactive)
GI50 (M19-MEL): 19.1 µM (inactive)
GI50 (U-251): 22.5 µM (inactive)
GI50 (SK-OV-3): 28.8 µM (inactive)
GI50 (MOLT-4): 23.2 µM (inactive)
GI50 (SNB-78): 28.2 µM (inactive)
GI50 (A498): 70 µM (inactive)
GI50 (OVCAR-8): 19.8 µM (inactive)
GI50 (ACHN): 18.1 µM (inactive)
GI50 (SNB-75): 17.5 µM (inactive)
GI50 (HOP-62): 20.8 µM (inactive)
GI50 (CAKI-1): 21.1 µM (inactive)
GI50 (RXF 393): 16.1 µM (inactive)
GI50 (HT-29): 18.2 µM (inactive)
GI50 (NCI-H460): 46.6 µM (inactive)
GI50 (HCC 2998): 23.6 µM (inactive)
GI50 (EKVX): 22.2 µM (inactive)
GI50 (786-0): 16.2 µM (inactive)
GI50 (HOP-92): 25.3 µM (inactive)
GI50 (XF498): 21.9 µM (inactive)
GI50 (LOX IMVI): 16.8 µM (inactive)
GI50 (UACC-257): 23.8 µM (inactive)
GI50 (SK-MEL-2): 17.4 µM (inactive)
GI50 (SN12C): 21.4 µM (inactive)
GI50 (KM-20L2): 32.7 µM (inactive)
GI50 (HCT-116): 21 µM (inactive)
GI50 (RPMI-8226): 22.3 µM (inactive)
GI50 (SW-620): 11.3 µM (inactive)
GI50 (NCI-H522): 16.9 µM (inactive)
GI50 (NCI-H23): 16.1 µM (inactive)
GI50 (UACC-62): 16.5 µM (inactive)
GI50 (DLD-1): 13.5 µM (inactive)
